From patent US9949917B2, “Cosmetic composition comprising a combination of a sugar fatty acid ester with a plant extract of Waltheria indica or Pisum sativum for skin whitening” (Cognis IP Management GmbH, priority 2006, dated 2018)

Legend:
[1] = system: Melanocytes (B16 cell line); assay: Melanogenesis inhibition assay: level of melanin (optical density at 475 nm); assay type: cell-based
Method: Melanocytes (B16 cell line) were inoculated in standard medium of cell culture with foetal calf serum (FCS). After an incubation for 3 days at 37° C. and CO2=5%, growth medium was exchanged for standard medium with a range of concentrations for each ingredient to be tested and a control without ingredient. After an incubation of 3 days, the level of melanin is measured by recording the optical density at 475 nm. After washing the cells by a balanced salt, and homogenisation in a solution of 0.1 M NaOH, the number of viable cells is determined by evaluation of the level of cellular proteins (Bradford's method).
Combinations of ingredients have been tested on the same cell cultures, in parallel with the ingredients alone. The results are expressed in % against control (cell culture medium without ingredient) as a mean+/−SEM (Standard Error of Mean) on 2 or 3 assays, each in triplicate.

[2] = target: T1, Tyrosinase in B16 melanocytes (Mus musculus, UniProt P11344); assay: Tyrosinase activity on melanocytes (DL-DOPA, optical density at 475 nm); assay type: cell-based
T1 construct: endogenous in cells; host or cells: B16 melanocytes (cell line)
T1 sequence (P11344 19-533): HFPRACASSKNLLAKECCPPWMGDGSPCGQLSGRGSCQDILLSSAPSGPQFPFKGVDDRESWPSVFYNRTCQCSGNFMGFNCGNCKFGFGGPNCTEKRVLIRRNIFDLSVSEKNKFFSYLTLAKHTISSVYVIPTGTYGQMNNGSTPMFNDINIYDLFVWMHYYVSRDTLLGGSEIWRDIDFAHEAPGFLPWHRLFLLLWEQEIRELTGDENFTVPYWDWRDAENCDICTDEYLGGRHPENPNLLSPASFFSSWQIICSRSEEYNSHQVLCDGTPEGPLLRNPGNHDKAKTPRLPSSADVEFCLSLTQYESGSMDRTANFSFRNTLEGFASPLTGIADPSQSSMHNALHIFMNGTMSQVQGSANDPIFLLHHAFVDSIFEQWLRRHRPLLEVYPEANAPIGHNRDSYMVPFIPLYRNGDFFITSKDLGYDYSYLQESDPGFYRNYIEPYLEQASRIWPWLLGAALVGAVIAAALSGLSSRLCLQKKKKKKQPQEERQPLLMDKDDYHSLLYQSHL
From the text: Melanocytes (B16 cell line) were inoculated in standard medium of cell culture with foetal calf serum (FCS). […] Combinations of ingredients have been tested on the same cultures, in parallel with ingredients alone. […] The optical density at 475 nm is expressed as a % against control and presented as a mean+/−SEM (standard error of mean) of triplicates.

[3] = sucrose laurate 0.0003% (w/v) alone, 3 assays

effect on tyrosinase activity in melanocytes (in words) ([2]; Tables 7 and 8): decreases the tyrosinase activity
Tyrosinase activity in %/control ([2]; sucrose laurate 0.005% (w/v) alone): 75 +/− 6 %/control
Tyrosinase activity in %/control ([2]; sucrose laurate 0.01% (w/v) alone): 64 +/− 7 %/control
Substance: Sucrose laurate [Sucrose laurate of example 5]
Rate of melanin in %/control [1, 3]: 56 +/− 18 %/control
Ratio of rate of cellular proteins on rate of melanin [1, 3]: 1.8
Rate of melanin in %/control ([1]; sucrose laurate 0.0003% (w/v) alone, 3 assays, listed as sucrose laurate): 56+/−18 %/control
Rate of melanin in %/control ([1]; sucrose laurate 0.001% (w/v) alone, 2 assays (Table 5)): 56 +/− 7 %/control
Ratio of rate of cellular proteins on rate of melanin ([1]; sucrose laurate 0.001% (w/v) alone, 2 assays (Table 6)): 1.6
Rate of melanin in %/control ([1]; sucrose laurate 0.001% (w/v) alone, 3 assays (Table 2)): 54 +/− 16 %/control
Rate of melanin in %/control ([1]; sucrose laurate 0.001% (w/v) alone, 3 assays (Table 2), listed as sucrose laurate): 54+/−16 %/control
Ratio of rate of cellular proteins on rate of melanin ([1]; sucrose laurate 0.001% (w/v) alone, 3 assays (Table 3)): 1.8
